Assay results published in ChEMBL document CHEMBL1287762, “Synthesis and biological evaluation of 3-[4-(amino/methylsulfonyl)phenyl]methylene-indolin-2-one derivatives as novel COX-1/2 and 5-LOX inhibitors” (Bioorg Med Chem Lett, 2010).

Columns and labels:
[1] = molecular target: T1, Prostaglandin G/H synthase 2 (Oryctolagus cuniculus, UniProt O02768); experiment: Inhibition of COX-2 in rabbit peripheral venous blood assessed as formation of 12-hydroxyheptadecatrienoic acid after 24 hrs in by HPLC presence of calcium ionophore […] and lipopolysaccharide; assay type: tissue-based
T1 sequence (O02768 whole entry): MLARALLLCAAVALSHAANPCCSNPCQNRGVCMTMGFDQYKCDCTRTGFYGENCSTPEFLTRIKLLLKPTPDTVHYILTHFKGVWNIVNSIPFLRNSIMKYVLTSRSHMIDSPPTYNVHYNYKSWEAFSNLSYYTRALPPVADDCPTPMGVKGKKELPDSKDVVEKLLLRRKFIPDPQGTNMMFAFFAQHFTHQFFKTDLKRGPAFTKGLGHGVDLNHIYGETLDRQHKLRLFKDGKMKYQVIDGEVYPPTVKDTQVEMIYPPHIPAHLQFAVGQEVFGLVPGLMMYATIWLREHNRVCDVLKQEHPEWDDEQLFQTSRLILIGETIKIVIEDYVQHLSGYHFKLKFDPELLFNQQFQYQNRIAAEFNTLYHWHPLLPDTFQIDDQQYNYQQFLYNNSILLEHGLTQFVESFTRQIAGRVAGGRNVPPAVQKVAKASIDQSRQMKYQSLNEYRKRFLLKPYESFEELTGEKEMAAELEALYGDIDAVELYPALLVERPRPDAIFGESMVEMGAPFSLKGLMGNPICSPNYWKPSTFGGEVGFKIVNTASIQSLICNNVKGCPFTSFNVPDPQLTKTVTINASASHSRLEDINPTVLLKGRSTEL

[2] = molecular target: T2, Prostaglandin G/H synthase 1 (Oryctolagus cuniculus, UniProt O97554); experiment: Inhibition of COX-1 in rabbit peripheral venous blood assessed as formation of 12-hydroxyheptadecatrienoic acid after 24 hrs by HPLC in presence of calcium ionophore A23187
T2 sequence (O97554 whole entry): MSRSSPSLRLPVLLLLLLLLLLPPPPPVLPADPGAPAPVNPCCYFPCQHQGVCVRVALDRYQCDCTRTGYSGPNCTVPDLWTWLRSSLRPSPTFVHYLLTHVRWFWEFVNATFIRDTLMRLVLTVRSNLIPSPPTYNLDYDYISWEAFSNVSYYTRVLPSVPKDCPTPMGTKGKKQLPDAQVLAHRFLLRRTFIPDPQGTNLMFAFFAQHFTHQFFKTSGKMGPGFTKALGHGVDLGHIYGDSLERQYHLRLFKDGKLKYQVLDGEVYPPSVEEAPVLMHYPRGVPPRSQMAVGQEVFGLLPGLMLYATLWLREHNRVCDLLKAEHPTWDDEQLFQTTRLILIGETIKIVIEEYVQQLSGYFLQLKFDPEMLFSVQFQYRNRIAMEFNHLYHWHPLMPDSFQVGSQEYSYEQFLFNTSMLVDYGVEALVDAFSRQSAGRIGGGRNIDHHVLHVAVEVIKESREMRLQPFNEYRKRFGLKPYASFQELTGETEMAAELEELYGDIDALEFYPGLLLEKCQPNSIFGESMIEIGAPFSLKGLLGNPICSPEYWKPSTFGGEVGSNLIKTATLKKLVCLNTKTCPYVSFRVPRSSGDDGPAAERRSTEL

[3] = Inhibition of 5-LOX in rabbit peripheral venous blood assessed as formation of […] after 30 mins by HPLC; assay type: tissue-based, Oryctolagus cuniculus
Mus musculus [4] = experiment: Analgesic activity in BALB/c mouse assessed as inhibition of acetic acid-induced writhing response for 15 mins at 19.30 mg/kg, po; assay type: functional; details: 0.25 h
Rattus norvegicus [5] = experiment: Antiinflammatory activity in Wistar rat assessed as inhibition of carrageenan-induced paw edema at 9.65 mg/kg, po administered 1 hr before carrageenan challenge measured at 1 hr by plethysmometer; assay type: functional
Rattus norvegicus [6] = experiment: Antiinflammatory activity in Wistar rat assessed as inhibition of carrageenan-induced paw edema at 9.65 mg/kg, po administered 1 hr before carrageenan challenge measured at 6 hrs by plethysmometer; assay type: functional
Oryctolagus cuniculus = organism: Oryctolagus cuniculus; experiment: Selectivity ratio, IC50 for COX-1in rabbit peripheral venous blood to IC50 for COX-2 in rabbit peripheral venous blood; assay type: tissue-based
Rattus norvegicus [7] = experiment: Antiinflammatory activity in Wistar rat assessed as inhibition of carrageenan-induced paw edema at 9.65 mg/kg, po administered 1 hr before carrageenan challenge measured at 3 hrs by plethysmometer; assay type: functional
Rattus norvegicus [8] = experiment: Ulcerogenic effect in Wistar rat assessed as gastric ulcer area at 9.65 mg/kg, po administered for 7 days by microscopy; assay type: toxicity, organism-based, Stomach; set-up: dose 9.65 mg/kg, route oral; details: in vivo, 168 h
Rattus norvegicus [9] = experiment: Antiinflammatory activity in Wistar rat assessed as inhibition of carrageenan-induced paw edema at 9.08 mg/kg, po administered 1 hr before carrageenan challenge measured at 3 hrs by plethysmometer; assay type: functional
Rattus norvegicus [10] = experiment: Antiinflammatory activity in Wistar rat assessed as inhibition of carrageenan-induced paw edema at 9.08 mg/kg, po administered 1 hr before carrageenan challenge measured at 6 hrs by plethysmometer; assay type: functional
Rattus norvegicus [11] = experiment: Ulcerogenic effect in Wistar rat assessed as gastric ulcer area at 9.08 mg/kg, po administered for 7 days by microscopy; assay type: toxicity, organism-based, Stomach; set-up: dose 9.08 mg/kg, route oral; details: in vivo, 168 h
Rattus norvegicus [12] = experiment: Antiinflammatory activity in Wistar rat assessed as inhibition of carrageenan-induced paw edema at 9.08 mg/kg, po administered 1 hr before carrageenan challenge measured at 1 hr by plethysmometer; assay type: functional
Mus musculus [13] = experiment: Analgesic activity in BALB/c mouse assessed as inhibition of acetic acid-induced writhing response for 15 mins at 18.16 mg/kg, po; assay type: functional; details: 0.25 h
Rattus norvegicus [14] = experiment: Antiinflammatory activity in Wistar rat assessed as inhibition of carrageenan-induced paw edema at 10.15 mg/kg, po administered 1 hr before carrageenan challenge measured at 3 hrs by plethysmometer; assay type: functional
Rattus norvegicus [15] = experiment: Antiinflammatory activity in Wistar rat assessed as inhibition of carrageenan-induced paw edema at 10.15 mg/kg, po administered 1 hr before carrageenan challenge measured at 6 hrs by plethysmometer; assay type: functional
Rattus norvegicus [16] = experiment: Ulcerogenic effect in Wistar rat assessed as gastric ulcer area at 10.15 mg/kg, po administered for 7 days by microscopy; assay type: toxicity, organism-based, Stomach; set-up: dose 10.15 mg/kg, route oral; details: in vivo, 168 h
Rattus norvegicus [17] = experiment: Antiinflammatory activity in Wistar rat assessed as inhibition of carrageenan-induced paw edema at 10.15 mg/kg, po administered 1 hr before carrageenan challenge measured at 1 hr by plethysmometer; assay type: functional
Mus musculus [18] = experiment: Analgesic activity in BALB/c mouse assessed as inhibition of acetic acid-induced writhing response for 15 mins at 20.30 mg/kg, po; assay type: functional; details: 0.25 h
Rattus norvegicus [19] = experiment: Antiinflammatory activity in Wistar rat assessed as inhibition of carrageenan-induced paw edema at 1 mg/kg, po administered 1 hr before carrageenan challenge measured at 3 hrs by plethysmometer; assay type: functional
Rattus norvegicus [20] = experiment: Antiinflammatory activity in Wistar rat assessed as inhibition of carrageenan-induced paw edema at 13 mg/kg, po administered 1 hr before carrageenan challenge measured at 1 hr by plethysmometer; assay type: functional
Mus musculus [21] = experiment: Analgesic activity in BALB/c mouse assessed as inhibition of acetic acid-induced writhing response for 15 mins at 26 mg/kg, po; assay type: functional; details: 0.25 h
Rattus norvegicus [22] = experiment: Ulcerogenic effect in Wistar rat assessed as gastric ulcer area at 13 mg/kg, po administered for 7 days by microscopy; assay type: toxicity, organism-based, Stomach; set-up: dose 13 mg/kg, route oral; details: in vivo, 168 h
Rattus norvegicus [23] = experiment: Antiinflammatory activity in Wistar rat assessed as inhibition of carrageenan-induced paw edema at 13 mg/kg, po administered 1 hr before carrageenan challenge measured at 6 hrs by plethysmometer; assay type: functional

CS(=O)(=O)c1ccc(/C=C2/C(=O)Nc3ccc(F)cc32)cc1
IC50 [1]: > 50 µM | IC50 [2]: 8.99 µM | IC50 [3]: 9.42 µM

Cc1ccc2c(c1)/C(=C\c1ccc(S(C)(=O)=O)cc1)C(=O)N2
IC50 [1]: > 50 µM | IC50 [2]: > 50 µM | IC50 [3]: > 50 µM

NS(=O)(=O)c1ccc(/C=C2/C(=O)Nc3cc(Cl)ccc32)cc1
IC50 [1]: > 50 µM | IC50 [2]: > 50 µM | IC50 [3]: > 50 µM

NS(=O)(=O)c1ccc(/C=C2/C(=O)Nc3ccc(F)cc32)cc1
inhibition in vivo at 19.3 mg/kg (Mus musculus [4]): 54% | inhibition in vivo at 9.65 mg/kg (Rattus norvegicus [5]): 33.3% | inhibition in vivo at 9.65 mg/kg (Rattus norvegicus [6]): 27.4% | Ratio IC50 (Oryctolagus cuniculus): 3.44 | IC50 [1]: 0.18 µM | inhibition in vivo at 9.65 mg/kg (Rattus norvegicus [7]): 44.4% | IC50 [2]: 0.62 µM | Activity (Rattus norvegicus [8]): 0.45 mm2 | IC50 [3]: 9.87 µM

CS(=O)(=O)c1ccc(/C=C2/C(=O)Nc3ccccc32)cc1
inhibition in vivo at 9.08 mg/kg (Rattus norvegicus [9]): 38.9% | Ratio IC50 (Oryctolagus cuniculus): 1.69 | inhibition in vivo at 9.08 mg/kg (Rattus norvegicus [10]): 21.6% | IC50 [1]: 5.52 µM | Activity (Rattus norvegicus [11]): 0.56 mm2 | IC50 [2]: 9.32 µM | inhibition in vivo at 9.08 mg/kg (Rattus norvegicus [12]): 28.6% | inhibition in vivo at 18.16 mg/kg (Mus musculus [13]): 54.4% | IC50 [3]: 9.51 µM

NS(=O)(=O)c1ccc(/C=C2/C(=O)Nc3ccc(Cl)cc32)cc1
inhibition in vivo at 10.15 mg/kg (Rattus norvegicus [14]): 33.3% | Ratio IC50 (Oryctolagus cuniculus): 0.05 | inhibition in vivo at 10.15 mg/kg (Rattus norvegicus [15]): 19.6% | IC50 [1]: 3.31 µM | Activity (Rattus norvegicus [16]): 0.19 mm2 | IC50 [2]: 0.16 µM | inhibition in vivo at 10.15 mg/kg (Rattus norvegicus [17]): 19.1% | IC50 [3]: 3.37 µM | inhibition in vivo at 20.3 mg/kg (Mus musculus [18]): 80.7%

CC(C)(C)c1cc(/C=C2\SC(=N)NC2=O)cc(C(C)(C)C)c1O.CS(=O)(=O)O [DARBUFELONE MESYLATE]
inhibition in vivo at 1 mg/kg (Rattus norvegicus [19]): 36.1% | inhibition in vivo at 13 mg/kg (Rattus norvegicus [20]): 19.1% | inhibition in vivo at 26 mg/kg (Mus musculus [21]): 86.2% | Activity (Rattus norvegicus [22]): 0.87 mm2 | Ratio IC50 (Oryctolagus cuniculus): 342 | inhibition in vivo at 13 mg/kg (Rattus norvegicus [23]): 17.6% | IC50 [3]: 0.61 µM
